Structures can show the parent of a compound that is named as a salt. One block for each compound: values may come before it.
Assays:
integrin α4β1 = target: T1, integrin α4β1 (Homo sapiens, UniProt P05556+P13612); assay: Integrin α4β1-mediated cell adhesion assay (Jurkat cells on VCAM); format: cell-based; conditions: for IC50: Jurkat cells adhering to VCAM-1, α4β1-mediated cell adhesion; for α4β1/α4β7: selectivity ratio, Jurkat (α4β1)/VCAM-1 IC50 over RPMI-8866 (α4β7)/MadCAM-1 IC50
T1 construct: Jurkat cells were collected, washed twice using DPBS buffer; endogenous in cells; host or cells: Jurkat cells
T1 sequence (P05556 21-798, one chain of several): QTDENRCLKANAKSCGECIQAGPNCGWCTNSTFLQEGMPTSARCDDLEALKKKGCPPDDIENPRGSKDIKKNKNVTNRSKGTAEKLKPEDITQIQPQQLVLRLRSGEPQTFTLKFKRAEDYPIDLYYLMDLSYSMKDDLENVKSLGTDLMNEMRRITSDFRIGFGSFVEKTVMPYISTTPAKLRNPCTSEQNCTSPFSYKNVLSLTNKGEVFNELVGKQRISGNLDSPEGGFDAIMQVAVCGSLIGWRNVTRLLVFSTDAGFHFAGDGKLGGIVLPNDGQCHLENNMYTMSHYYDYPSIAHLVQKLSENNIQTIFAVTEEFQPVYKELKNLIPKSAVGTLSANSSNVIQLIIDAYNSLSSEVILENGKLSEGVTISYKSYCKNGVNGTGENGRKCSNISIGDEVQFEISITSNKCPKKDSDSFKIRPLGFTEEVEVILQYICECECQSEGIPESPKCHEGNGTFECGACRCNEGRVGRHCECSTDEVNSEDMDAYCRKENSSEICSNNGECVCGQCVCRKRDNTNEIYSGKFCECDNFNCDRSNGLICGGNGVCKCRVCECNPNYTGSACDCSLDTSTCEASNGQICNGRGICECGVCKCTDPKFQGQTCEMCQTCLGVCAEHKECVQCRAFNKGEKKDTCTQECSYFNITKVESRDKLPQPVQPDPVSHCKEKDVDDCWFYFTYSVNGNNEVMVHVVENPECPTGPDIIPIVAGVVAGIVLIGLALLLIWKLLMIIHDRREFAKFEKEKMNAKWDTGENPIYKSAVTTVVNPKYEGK
Method: VCAM was formulated into a final concentration of […] with a coating buffer, 50 μl of the solution was transferred to a 96-well plate, and the plate was coated with same at 4° C. overnight. The plate was washed with coating buffer three times, then 150 μl of a blocking solution (coating buffer containing 1% BSA) was added, and the plate was blocked at 37° C. for 1 h. Jurkat cells were collected, washed twice using DPBS buffer, and then resuspended to 4×10^6 cells/ml with an action buffer. 50 μl of the cell suspension was transferred to a 96-well plate so that the cell density reached 2×10^5 cells/well. Then 1 μl of the test compound at different concentration or DMSO was added and the plate was incubated at 37° C. for 1 h. The plate was washed with coating buffer to remove non-adherent cells. 50 μl of a substrate (4-nitrophenyl-N-acetyl-β-D-glucosaminide) was added and the plate was incubated at 37° C. for 2 h.
Coating buffer: DMEM+20 mM HEPES+0.4 mM MnCl2
Action buffer: DMEM+20 mM HEPES+0.1% BSA+0.4 mM MnCl2
DMEM: dulbecco's modified eagle medium;
HEPES: 2-[4-(2-hydroxyethyl)piperazin-1-yl]ethanesulfonic acid

integrin α4β7 = target: T2, integrin α4β7 (Homo sapiens, UniProt P13612+P26010); assay: Integrin α4β7 cell adhesion assay (RPMI8866 cells on MAdCAM-1); format: cell-based; conditions: RPMI8866 cells adhering to MAdCAM-1; α4β7-mediated cell adhesion; read-out: RPMI-8866 (α4β7)/MadCAM-1 IC50
T2 sequence (P13612 34-1032): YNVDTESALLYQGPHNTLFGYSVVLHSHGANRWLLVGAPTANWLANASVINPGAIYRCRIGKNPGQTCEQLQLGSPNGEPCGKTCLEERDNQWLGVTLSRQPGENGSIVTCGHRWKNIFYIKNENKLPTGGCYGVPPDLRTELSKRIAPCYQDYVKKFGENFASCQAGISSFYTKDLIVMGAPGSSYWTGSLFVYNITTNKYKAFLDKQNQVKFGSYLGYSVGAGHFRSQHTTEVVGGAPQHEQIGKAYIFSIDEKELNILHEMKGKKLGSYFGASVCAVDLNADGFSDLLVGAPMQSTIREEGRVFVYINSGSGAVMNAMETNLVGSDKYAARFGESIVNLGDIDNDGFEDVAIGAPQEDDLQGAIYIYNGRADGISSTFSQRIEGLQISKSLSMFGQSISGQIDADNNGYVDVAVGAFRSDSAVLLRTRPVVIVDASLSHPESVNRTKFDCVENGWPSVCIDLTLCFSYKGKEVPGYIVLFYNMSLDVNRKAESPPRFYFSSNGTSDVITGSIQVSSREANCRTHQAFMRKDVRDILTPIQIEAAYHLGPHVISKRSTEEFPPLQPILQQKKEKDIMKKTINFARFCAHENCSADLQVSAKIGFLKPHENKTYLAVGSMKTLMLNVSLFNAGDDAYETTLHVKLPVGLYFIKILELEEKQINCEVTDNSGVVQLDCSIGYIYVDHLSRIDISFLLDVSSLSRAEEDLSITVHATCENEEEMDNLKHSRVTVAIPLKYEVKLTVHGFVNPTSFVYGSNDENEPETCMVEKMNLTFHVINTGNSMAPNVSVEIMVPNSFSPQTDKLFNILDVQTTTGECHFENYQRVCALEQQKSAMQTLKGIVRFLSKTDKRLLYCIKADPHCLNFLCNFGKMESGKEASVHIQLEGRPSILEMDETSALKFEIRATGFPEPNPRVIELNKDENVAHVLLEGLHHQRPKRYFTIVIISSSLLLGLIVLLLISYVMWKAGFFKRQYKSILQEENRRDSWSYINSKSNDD
T2 sequence (P26010 20-798): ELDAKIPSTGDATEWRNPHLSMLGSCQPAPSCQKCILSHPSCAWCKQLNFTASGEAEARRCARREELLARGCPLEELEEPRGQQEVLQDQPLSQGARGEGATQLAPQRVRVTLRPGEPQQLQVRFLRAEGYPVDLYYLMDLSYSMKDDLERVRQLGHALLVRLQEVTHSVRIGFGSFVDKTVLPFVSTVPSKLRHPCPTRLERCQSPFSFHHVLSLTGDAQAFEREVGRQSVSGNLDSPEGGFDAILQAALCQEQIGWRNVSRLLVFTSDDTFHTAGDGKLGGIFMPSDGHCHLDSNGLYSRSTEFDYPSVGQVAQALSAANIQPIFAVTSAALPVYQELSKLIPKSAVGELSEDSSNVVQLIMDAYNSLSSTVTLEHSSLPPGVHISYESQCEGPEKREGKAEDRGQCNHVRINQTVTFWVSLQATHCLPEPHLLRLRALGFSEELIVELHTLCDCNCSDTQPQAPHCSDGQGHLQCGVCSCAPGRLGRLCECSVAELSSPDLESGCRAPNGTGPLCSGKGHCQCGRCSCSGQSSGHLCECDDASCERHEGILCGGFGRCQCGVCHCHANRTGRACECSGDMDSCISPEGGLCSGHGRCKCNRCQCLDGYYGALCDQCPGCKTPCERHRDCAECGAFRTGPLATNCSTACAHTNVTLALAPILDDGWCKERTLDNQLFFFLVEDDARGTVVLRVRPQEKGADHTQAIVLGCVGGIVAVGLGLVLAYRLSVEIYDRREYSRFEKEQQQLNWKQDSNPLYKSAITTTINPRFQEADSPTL
Method: MAdCAM-1 was formulated with TBS buffer to a final concentration of […], 50 μl of the solution was transferred to a 96-well plate, and the plate was coated with same at 4° C. overnight. The plate was washed with TBS buffer three times, then 150 μl of a blocking solution (TBS buffer containing 1% BSA) was added, and the plate was blocked at 37° C. for 1 h. […] 50 μl of the cell suspension was transferred to a 96-well plate so that the cell density reached 2×10^5 cells/well. Then 1 μl of the compound at different concentrations or DMSO was added and the plate was incubated at 37° C. for 1 h or 2 h. The plate was washed with TBS buffer to remove non-adherent cells. 50 μl of a substrate (4-nitrophenyl-N-acetyl-o-D-glucosaminide) was added and the plate was incubated at 37° C. for 2 h. […] The IC50 value was calculated using GraphPad Prism 6 software.

[1] = Pharmacokinetic test in rats; format: in vivo, SD rats
Method: Experimental animals: Male SD rats, about 220 g, 6-8 weeks old, 6 rats/compound, purchased from Chengdu Ddossy Experimental Animals Co., Ltd.
Experimental design: on the day of the test, 6 SD rats/compound were randomly grouped according to their body weights. The animals were fasted with water available for 12 to 14 h one day before the administration and were fed 4 h after the administration.

[2] = Test of stability in liver microsomes (mouse); format: in vitro ADME; conditions: 1 μM test compound, NADPH, 37° C.
Method: (§1) In this experiment, liver microsomes of three species, including monkey, rat and mouse, were used as in vitro models to evaluate the metabolic stability of the test compound.
(§2) At 37° C., 1 μM of the test compound was co-incubated with microsomal protein and coenzyme NADPH. At given time points of the reaction (5 min, 10 min, 20 min, 30 min, and 60 min), the reaction was terminated by adding ice-cold acetonitrile containing an internal standard. The LC-MS/MS method was used to measure the concentration of the test compound in the sample. T1/2 was calculated using the natural logarithm (ln) of the residual rate of the drug in the incubation system and the incubation time. In addition, the intrinsic clearance in liver microsomes CLint(mic) and the intrinsic clearance in liver CLint(Liver) were further calculated.

[3] = Test of stability in liver microsomes (monkey); format: in vitro ADME; conditions: 1 μM test compound, NADPH, 37° C.
Method: as §1, §2

[4] = Test of stability in liver microsomes (rat); format: in vitro ADME; conditions: 1 μM test compound, NADPH, 37° C.
Method: as §1, §2

[5] = read-out: Hepatic intrinsic clearance CLint(liver)
[6] = read-out: Hepatic microsomal intrinsic clearance CLint (mic)

SMILES: COc1cc(C)c(-c2c(F)c(C(CC(=O)O)NC(=O)C(CC(C)C)n3cc(CCN(C)C)c(C(F)(F)F)cc3=O)c(F)c3c2CCC3)c(C)c1 (single isomer, unassigned) [Trifluoroacetate salt of compound 21-2]
IC50 (integrin α4β7): < 1 nM
IC50 (integrin α4β1): > 500 nM

SMILES: Cc1cc(F)cc(C)c1-c1c(F)c(C(CC(=O)O)NC(=O)[C@H](CC(C)C)n2cc(CCC3CCCN3C)c(C(F)(F)F)cc2=O)c(F)c2c1CCC2 (single isomer, unassigned) [Trifluoroacetate salt of compound 28-2]
IC50 (integrin α4β1): > 100 nM

SMILES: COc1cc(C)c(-c2c(F)c(C(CC(=O)O)NC(=O)C(CC(C)C)n3cc(CCN(C)C)c(C(F)(F)F)cc3=O)c(F)c3c2CCC3)c(C)c1 (stereo not shown) [Compound 21-A]
IC50 (integrin α4β1): > 100 nM

SMILES: Cc1cc(-c2c(C)cc(F)cc2C)cc([C@H](CC(=O)O)NC(=O)[C@H](CC(C)C)n2cc(CCN(C)C)c(C(F)(F)F)cc2=O)c1F [Control compound A]
half-life at 1 μM [2]: 49.3 min
CLint scaled at 1 μM [2, 5]: 111 mL/min/kg
microsomal CLint at 1 μM [2, 6]: 28.1 µL/min/mg
half-life at 1 μM [3]: 10.6 min
CLint scaled at 1 μM [3, 5]: 176 mL/min/kg
microsomal CLint at 1 μM [3, 6]: 130 µL/min/mg
F ([1]; PO: 10 mg/kg vs iv […] (footnote, control compound A)): 23.9%
AUC ([1]; male, SD, rat, plasma, PO: 10 mg/kg (footnote, control compound A)): 900 ng·h/mL
clearance ([1]; male, SD, rat, plasma, iv 2.5 mg/kg (footnote, control compound A)): 45.8 mL/min/kg
half-life at 1 μM [4]: 35.7 min
CLint scaled at 1 μM [4, 5]: 69.9 mL/min/kg
microsomal CLint at 1 μM [4, 6]: 38.8 µL/min/mg

SMILES: Cc1cc(F)cc(C)c1-c1cc(C(CC(=O)O)NC(=O)C(CC(C)C)n2cc(CC3CCN(C(C)C)CC3)c(C(F)(F)F)cc2=O)cc2c1CCC2 (stereo not shown) [Trifluoroacetate salt of compound 22-2]
IC50 (integrin α4β7): < 0.5 nM
IC50 (integrin α4β1): > 100 nM

SMILES: Cc1cc(F)cc(C)c1-c1c(F)c(C(CC(=O)O)NC(=O)C(CC(C)C)n2cc(CCC3CCN(C)C3)c(C(F)(F)F)cc2=O)c(F)c2c1CCC2 (stereo not shown) [Trifluoroacetate salt of compound 26-2]
IC50 (integrin α4β7): < 1 nM
IC50 (integrin α4β1): > 100 nM

The remaining lines, values ahead:

IC50 (integrin α4β1): > 100 nM
SMILES: Cc1cc(F)cc(C)c1-c1cc(C(CC(=O)O)NC(=O)C(CC(C)C)n2cc(CCN(C)CC3CC3(F)F)c(C(F)(F)F)cc2=O)cc2c1CCC2 (single isomer, unassigned) [Compound 1-2]

CL ([1]; IV: 1 mg/kg): 20.2 mL/min/kg
SMILES: Cc1cc(F)cc(C)c1-c1c(F)c(C(CC(=O)O)NC(=O)[C@H](CC(C)C)n2cc(CC3CN(C(C)C)C3)c(C(F)(F)F)cc2=O)c(F)c2c1CCC2 (stereo partly shown) [Compound 32-2]

IC50 (integrin α4β7): < 0.5 nM
IC50 (integrin α4β1): > 100 nM
α4β1/α4β7 (integrin α4β1): 643
SMILES: Cc1ccc2[nH]ncc2c1-c1c(F)c(C(CC(=O)O)NC(=O)[C@H](CC(C)C)n2cc(CCN(C)C)c(C(F)(F)F)cc2=O)c(F)c2c1CCC2 (stereo partly shown) [Compound 33-2]

IC50 (integrin α4β7): < 0.5 nM
IC50 (integrin α4β1): > 300 nM
α4β1/α4β7 (integrin α4β1): 1143
SMILES: [2H]C([2H])([2H])Oc1cc(C)c(-c2c(F)c([C@H](CC(=O)O)NC(=O)C(CC(C)C)n3cc(CCN4CCC4)c(C(F)(F)F)cc3=O)c(F)c3c2CCC3)c(C)c1 (stereo partly shown) [Compound 40-2]

Source: patent US20260274797A1, “PROPIONIC ACID DERIVATIVE AND USE THEREOF IN MEDICINE” (Xizang Haisco Pharmaceutical Co., Ltd., priority 2022, published 2026)
